Assay results as given in patent US10294227B2, “Compounds” (UNIVERSITY COURT OF THE UNIVERSITY OF EDINBURGH, priority 2015, dated 2019).
Where two headings read alike, the source gives them in different places.

Legend:
[1] = tested on: MCF7 cells; assay: Cell viability assay (PrestoBlue); assay type: cell-based; details: Homo sapiens, MCF7, 120 h; cell viability at day 5; read-out: Antiproliferative activity (EC50) MCF7
[2] = tested on: SYF fibroblasts (deficient for Src, Yes, and Fyn); assay: Cell viability assay (PrestoBlue); assay type: cell-based, murine; details: Mus musculus, Fibroblast, 120 h; cell viability at day 5; read-out: Antiproliferative activity (EC50) SYF (−/− Src)
[3] = molecular target: selection of recombinant kinases; assay: Kinase screening assay, panel summary; assay type: biochemical, human; details: 15 kinases of Table 2
[4] = PBS, aqueous buffer
[5] = molecular target: CYP1A2 (Homo sapiens (Human), UniProt P05177); assay: CYP P450 inhibition
[6] = molecular target: CYP3A4 (Homo sapiens (Human), UniProt P08684); assay: CYP P450 inhibition
CYP3A4, sequence (P08684 whole entry): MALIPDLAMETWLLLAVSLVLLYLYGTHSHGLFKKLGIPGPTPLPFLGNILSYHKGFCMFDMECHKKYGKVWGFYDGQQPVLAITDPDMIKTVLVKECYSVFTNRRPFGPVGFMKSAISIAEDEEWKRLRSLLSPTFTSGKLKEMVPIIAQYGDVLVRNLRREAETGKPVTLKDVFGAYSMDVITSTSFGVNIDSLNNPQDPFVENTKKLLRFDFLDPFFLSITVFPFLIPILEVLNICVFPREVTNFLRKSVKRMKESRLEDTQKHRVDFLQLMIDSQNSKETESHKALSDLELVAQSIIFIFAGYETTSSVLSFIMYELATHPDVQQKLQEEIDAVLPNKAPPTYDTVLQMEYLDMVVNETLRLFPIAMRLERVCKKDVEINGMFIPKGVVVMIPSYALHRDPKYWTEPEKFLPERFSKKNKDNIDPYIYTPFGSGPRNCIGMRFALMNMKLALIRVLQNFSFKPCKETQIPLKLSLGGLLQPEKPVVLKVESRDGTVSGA

[7] = molecular target: CYP2C9 (Homo sapiens (Human), UniProt P11712); assay: CYP P450 inhibition
CYP2C9, sequence (P11712 whole entry): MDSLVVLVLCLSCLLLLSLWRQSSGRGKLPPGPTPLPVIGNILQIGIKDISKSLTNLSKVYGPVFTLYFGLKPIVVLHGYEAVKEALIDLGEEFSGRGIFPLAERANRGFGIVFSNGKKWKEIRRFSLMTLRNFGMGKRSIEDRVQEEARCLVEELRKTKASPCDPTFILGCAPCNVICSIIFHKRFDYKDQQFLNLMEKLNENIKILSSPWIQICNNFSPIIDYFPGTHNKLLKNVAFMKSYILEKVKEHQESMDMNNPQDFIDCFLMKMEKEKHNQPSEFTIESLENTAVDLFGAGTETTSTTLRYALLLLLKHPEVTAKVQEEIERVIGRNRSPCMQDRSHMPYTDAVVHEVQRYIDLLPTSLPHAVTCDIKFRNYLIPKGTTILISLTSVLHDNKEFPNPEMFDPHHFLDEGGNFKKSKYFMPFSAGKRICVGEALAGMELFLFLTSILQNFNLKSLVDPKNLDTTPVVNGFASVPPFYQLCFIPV

[8] = molecular target: CYP2D6 (Homo sapiens (Human), UniProt P10635); assay: CYP P450 inhibition
CYP2D6, sequence (P10635 whole entry): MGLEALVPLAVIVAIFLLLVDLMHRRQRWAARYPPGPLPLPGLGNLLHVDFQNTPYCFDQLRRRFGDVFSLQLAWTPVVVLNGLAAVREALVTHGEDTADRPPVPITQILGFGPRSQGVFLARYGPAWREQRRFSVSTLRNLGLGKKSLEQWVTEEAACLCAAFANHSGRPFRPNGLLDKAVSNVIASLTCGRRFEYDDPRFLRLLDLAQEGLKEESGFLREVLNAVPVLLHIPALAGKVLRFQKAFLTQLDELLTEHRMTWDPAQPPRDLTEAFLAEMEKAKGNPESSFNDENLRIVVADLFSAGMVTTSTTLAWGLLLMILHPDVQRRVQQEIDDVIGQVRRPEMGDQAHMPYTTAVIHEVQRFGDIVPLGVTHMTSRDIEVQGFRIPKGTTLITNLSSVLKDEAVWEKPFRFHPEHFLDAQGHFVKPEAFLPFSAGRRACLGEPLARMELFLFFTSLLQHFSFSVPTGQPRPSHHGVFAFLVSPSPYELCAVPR

[9] = molecular target: CYP2C19 (Homo sapiens (Human), UniProt P33261); assay: CYP P450 inhibition
[10] = molecular target: KIT (Homo sapiens (Human), UniProt P10721); assay: Kinase screening assay (IC50)
KIT, sequence (P10721 26-976): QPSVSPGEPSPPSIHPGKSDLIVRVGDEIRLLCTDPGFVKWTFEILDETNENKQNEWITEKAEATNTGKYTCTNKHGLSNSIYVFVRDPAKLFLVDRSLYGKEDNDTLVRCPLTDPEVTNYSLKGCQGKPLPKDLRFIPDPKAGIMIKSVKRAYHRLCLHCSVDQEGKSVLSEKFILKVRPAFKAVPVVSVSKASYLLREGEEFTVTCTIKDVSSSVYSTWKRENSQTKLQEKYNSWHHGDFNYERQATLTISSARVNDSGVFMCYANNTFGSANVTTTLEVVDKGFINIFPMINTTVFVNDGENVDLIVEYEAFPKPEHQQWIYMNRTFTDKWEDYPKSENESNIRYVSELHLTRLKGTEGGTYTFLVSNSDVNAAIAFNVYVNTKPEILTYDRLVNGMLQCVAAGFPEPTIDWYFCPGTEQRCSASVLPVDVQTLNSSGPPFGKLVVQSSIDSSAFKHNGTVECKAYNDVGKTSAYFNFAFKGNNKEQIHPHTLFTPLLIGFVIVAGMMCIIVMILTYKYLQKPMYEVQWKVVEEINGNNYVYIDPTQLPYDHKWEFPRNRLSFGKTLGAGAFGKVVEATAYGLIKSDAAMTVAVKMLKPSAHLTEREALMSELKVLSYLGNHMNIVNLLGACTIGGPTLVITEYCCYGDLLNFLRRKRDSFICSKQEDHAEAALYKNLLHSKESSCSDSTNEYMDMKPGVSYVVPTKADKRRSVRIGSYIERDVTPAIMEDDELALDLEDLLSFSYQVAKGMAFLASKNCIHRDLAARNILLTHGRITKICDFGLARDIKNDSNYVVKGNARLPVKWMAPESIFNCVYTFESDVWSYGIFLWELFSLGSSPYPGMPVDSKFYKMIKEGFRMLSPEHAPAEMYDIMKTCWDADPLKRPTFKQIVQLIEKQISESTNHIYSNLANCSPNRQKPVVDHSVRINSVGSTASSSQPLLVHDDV

[11] = molecular target: RET (Homo sapiens (Human), UniProt P07949); assay: Kinase screening assay (IC50)
RET, sequence (P07949 29-1114): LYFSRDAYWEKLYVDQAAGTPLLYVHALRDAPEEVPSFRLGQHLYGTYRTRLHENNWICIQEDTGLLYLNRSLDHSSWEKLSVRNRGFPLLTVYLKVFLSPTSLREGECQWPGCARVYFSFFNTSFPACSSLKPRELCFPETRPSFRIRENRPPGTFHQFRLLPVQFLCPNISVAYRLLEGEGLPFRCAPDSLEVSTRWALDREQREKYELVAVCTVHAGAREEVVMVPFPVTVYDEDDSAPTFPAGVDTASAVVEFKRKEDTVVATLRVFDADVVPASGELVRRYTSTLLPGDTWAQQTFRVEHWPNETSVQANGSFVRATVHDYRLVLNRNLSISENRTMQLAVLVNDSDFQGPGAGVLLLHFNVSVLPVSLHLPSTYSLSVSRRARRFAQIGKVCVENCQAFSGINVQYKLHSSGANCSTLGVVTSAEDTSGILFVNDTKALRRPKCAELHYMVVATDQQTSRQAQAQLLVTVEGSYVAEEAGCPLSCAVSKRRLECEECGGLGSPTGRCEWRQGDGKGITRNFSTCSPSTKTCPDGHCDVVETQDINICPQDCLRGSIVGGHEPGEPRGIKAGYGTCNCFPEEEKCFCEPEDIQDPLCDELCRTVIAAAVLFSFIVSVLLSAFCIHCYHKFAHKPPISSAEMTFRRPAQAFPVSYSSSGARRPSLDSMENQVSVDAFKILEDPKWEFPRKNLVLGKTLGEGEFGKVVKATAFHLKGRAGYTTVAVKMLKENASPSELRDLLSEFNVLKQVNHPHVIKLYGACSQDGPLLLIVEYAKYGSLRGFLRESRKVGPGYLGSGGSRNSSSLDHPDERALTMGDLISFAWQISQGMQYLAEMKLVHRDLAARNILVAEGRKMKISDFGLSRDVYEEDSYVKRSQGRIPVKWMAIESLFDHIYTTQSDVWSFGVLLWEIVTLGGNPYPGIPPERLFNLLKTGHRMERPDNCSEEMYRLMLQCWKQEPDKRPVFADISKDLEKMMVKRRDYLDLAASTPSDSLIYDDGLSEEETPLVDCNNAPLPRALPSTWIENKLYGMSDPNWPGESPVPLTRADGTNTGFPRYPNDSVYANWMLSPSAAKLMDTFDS

[12] = molecular target: hERG channel (Homo sapiens (Human), UniProt Q12809); assay: hERG Safety Assay, Ionworks high-throughput electrophysiology
hERG channel, sequence (Q12809 whole entry): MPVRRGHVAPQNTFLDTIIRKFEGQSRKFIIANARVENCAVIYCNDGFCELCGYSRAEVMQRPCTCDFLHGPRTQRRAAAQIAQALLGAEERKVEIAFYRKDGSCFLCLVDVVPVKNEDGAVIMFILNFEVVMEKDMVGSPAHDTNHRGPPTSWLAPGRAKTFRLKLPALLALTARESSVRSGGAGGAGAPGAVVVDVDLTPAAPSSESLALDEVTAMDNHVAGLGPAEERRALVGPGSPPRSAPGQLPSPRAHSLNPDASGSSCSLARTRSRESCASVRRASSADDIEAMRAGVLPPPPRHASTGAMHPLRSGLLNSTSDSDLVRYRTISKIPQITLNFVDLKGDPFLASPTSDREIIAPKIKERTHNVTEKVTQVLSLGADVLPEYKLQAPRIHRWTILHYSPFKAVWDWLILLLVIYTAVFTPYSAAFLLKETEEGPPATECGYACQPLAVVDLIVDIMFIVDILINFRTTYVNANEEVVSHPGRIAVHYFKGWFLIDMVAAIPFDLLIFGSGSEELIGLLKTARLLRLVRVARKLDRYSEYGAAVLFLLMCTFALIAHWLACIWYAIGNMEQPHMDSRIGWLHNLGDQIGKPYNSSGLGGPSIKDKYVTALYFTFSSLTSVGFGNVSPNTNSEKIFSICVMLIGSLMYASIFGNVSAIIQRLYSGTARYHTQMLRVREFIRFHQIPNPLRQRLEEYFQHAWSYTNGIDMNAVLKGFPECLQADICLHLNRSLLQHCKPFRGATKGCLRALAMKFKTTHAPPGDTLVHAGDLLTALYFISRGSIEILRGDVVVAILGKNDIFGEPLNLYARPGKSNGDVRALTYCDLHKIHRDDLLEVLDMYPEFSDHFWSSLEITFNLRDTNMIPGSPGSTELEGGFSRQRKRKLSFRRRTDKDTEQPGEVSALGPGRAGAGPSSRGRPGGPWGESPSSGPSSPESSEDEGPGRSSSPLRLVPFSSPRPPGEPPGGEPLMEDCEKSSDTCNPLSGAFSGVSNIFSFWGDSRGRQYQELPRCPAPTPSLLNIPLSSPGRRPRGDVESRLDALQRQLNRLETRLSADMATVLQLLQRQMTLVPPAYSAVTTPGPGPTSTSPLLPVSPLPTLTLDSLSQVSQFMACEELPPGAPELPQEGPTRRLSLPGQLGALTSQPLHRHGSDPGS

Row | EC50 [1] | Target inhibition (IC50), remark on the whole panel [3] | solubility [4] | inhibition at 10 µM [5] | inhibition at 10 µM [6] | inhibition at 10 µM [7] | inhibition at 10 µM [8] | inhibition at 10 µM [9] | IC50 [10] | IC50 ([10]; read-out: Kinase Screening (IC50) c-KIT) | IC50 ([10]; read-out: Target inhibition (IC50) KIT, 10 μM ATP) | IC50 [11] | IC50 ([11]; read-out: Kinase Screening (IC50) RET) | IC50 ([11]; read-out: Target inhibition (IC50) RET, 10 μM ATP) | SMILES | EC50 [2] | IC50 [12]
1 | > 10 µM | No inhibition found |  |  |  |  |  |  |  |  |  |  |  |  | CN(C)C1CCN(CCn2nc(-c3ccc(CC(=O)O)cc3)c3c(N)ncnc32)CC1 [Compound 556, 2-[4-[4-amino-1-[2-[4-(dimethylamino)-1-piperidyl]ethyl]pyrazolo[3,4-d]pyrimidin-3-yl]phenyl]acetic acid] | > 10 µM | 
2 |  |  | > 100 mg/mL | 24.6% | -74.6% | -23.1% | 31.8% | -5.4% | 5.13 µM | > 1 µM | > 1 µM | > 10 µM | > 1 µM | > 1 µM | COc1cc(-c2nn(CCN3CCC(N(C)C)CC3)c3ncnc(N)c23)ccc1NC(=O)OC(C)(C)C [Compound 506, tert-butyl N-[4-[4-amino-1-[2-[4-(dimethylamino)-1-piperidyl]ethyl]pyrazolo[3,4-d]pyrimidin-3-yl]-2-methoxy-phenyl]carbamate] |  | 18.2 µM
